Results from US8486372B2, “Cyclic azapeptides as integrin markers and methods of using” (Siemens Medical Solutions USA, Inc., priority 2007, dated 2013).

Target: T1, Integrin αvβ3 expressing U87MG cells (Homo sapiens, UniProt P05106+P06756)
T1 construct: Integrin αvβ3 expressing U87MG cells; endogenous in cells; host or cells: U87MG cells
Assay: Cell-based integrin binding competition assay against green fluorescence labeled compound 13
Conditions: 0-32 μM compound, 2 μM compound 13, 2 hrs, fluorescence reading, FIG. 2
Procedure: Integrin αvβ3 expressing U87MG cells were incubated with a series of concentration of RGD compounds (0-32 μM) in the presence of 2 μM of green fluorescence labeled compound 13 for 2 hrs. After incubation, cells were washed three times to eliminate unbound RGD compounds. Fluorescence readings (RLU) were then taken (excitation at 491 nm, emission at 518 nm, cutoff 515 nm).

N=C(N)NCCC[C@@H]1NC(=O)[C@H](CCCCN)NC(=O)N(Cc2ccccc2)NC(=O)[C@H](CC(=O)O)NC(=O)CNC1=O [Compound 7, 2-((5S,8S,14S)-5-(4-aminobutyl)-2-benzyl-8-(3-guanidinopropyl)-3,6,9,12,15-pentaoxo-1,2,4,7,10,13-hexaazacyclopentadecan-14-yl)acetic acid]
potency in binding competition: very similar in potency
